Results as given in patent publication US4698332A, “Expectorant” (Mect Corporation, priority 1984, dated 1987).

Assays:
palatine mucosa of frog = experiment: Ciliary movement of frog palatine mucosa, particle transport method (Example 3, Tables 1-3); assay type: cell-based, bull frog
Procedure: Bull frogs (furnished by Saitama Test Animal) weighing 300 to 450 g were used regardless of sex.
N-acetylneuraminic acid and calcium salt of N-acetylneuraminic acid (provided by Kanto Ishiseiyaku Kabushiki Kaisha), as well as acetylcholine chloride (furnished by Sigma Kabushiki Kaisha) were used as the test substances.
Mucociliary transport was measured by the particle transport method. After decapitation of a frog, the surface of the palatine mucosa was separated with minimized damage and of fixed to a cork plate in a Petri dish which was then filled with 20 ml of Ringer's solution (trishydrochloric acid). The palatine mucosa was left in this state for 30 minutes before the commencement of measurement. For measurement, the Ringer's solution was removed and fine pieces of cork (capable of passing pharmaceutical sieve No. 5 but not capable of passing No. 6) were placed on the surface of the palatine mucosa, and the time (in seconds) required for the cork piece to move 1 cm was measured. The duration of movement, i.e., moving speed, was measured also in the state immediately after the removal of the Ringer's solution or pharmaceutical solution.

[1] = tested on: ciliated cells from human airway and frog palate; experiment: Rotation of ciliated cell groups (Example 4); assay type: cell-based
Source text: Using ciliated cells from human airway and frog palate, rotation of cell groups due to ciliary beat was observed before and after application of N-acetylneuraminic acid and calcium salt of N-acetylneuraminic acid, in order to confirm the effect of these agents on the cilitated cells.
Human ciliated cells were collected from a normal trachea by means of a branchoscope, the ciliated cells being separated by rubbing the bronchus while observing through the branchoscope, while the collection of frog cilitated cells was conducted by rubbing the palatine mucosta, without being specially careful. […] The groups of cells were transferred to a cover slip and one drop of chicken plasma (prepared by Difco Company) and one drop of 50% chicken embryo extract were added to the cells, thus forming clots. The rotary motion in the clots was recorded by means of a video recorder and the number of rotations per minute was measured.

[2] = tested on: sputum of patients with chronic obstructive lung disease on frog palatine mucosa; experiment: Mucociliary transport rate (MTR) of treated sputum on frog palatine mucosa (Example 5); parameters: species or system human sputum; frog palatine mucosa; conditions: for MTR after treatment: 2 mg
Procedure: (§1) Mucociliary transport rate (hereinunder referred to as MTR), i.e. the rate of transport of sputum by cilia, was measured using frog palatine mucosa. At the same time, physicochemical properties of the sputum before and after application of N-acetylneuraminic acid were compared.
(§2) The sputum used as the specimens was collected from 12 samples of patients suffering from chronic obstructive lung disease. N-acetylneuraminic acid was added to the specimen sputum in the ratios of 5 mg/ml sputum and 1 mg/ml sputum, and the specimen was left for 1 hour at 4° C. before measurement. Sputum which has not been treated by N-acetylneuraminic acid was used as a comparison example. A palatine mucosa obtained from a decapitated frog head was kept at constant temperature and humidity until the mucus liquid of the frog itself depleted. The specimen sputum was placed on the dried palatine mucosa, and the speed of movement of the sputum was observed through a noumenal microscope, thus measuring the MTR. The pH value of the sputum was measured by means of an electronic model HM-SAp pH meter, while the spinnability was measured by a device developed by Nagaoka and Yamanaka (disclosed in Transactions of 2nd Symposium of Cough and sputum, published July 20, 1979). The yield value was measured by Dulfano's double-tube method which is shown in the American Review of Respiratory Diseases, Vol. 104, p88, 1971.

[3] = Physicochemical properties (pH, yield value, spinnability) of treated sputum (Example 5); parameters: species or system human; conditions: for Yield value after treatment / pH of sputum after treatment / Spinnability after treatment: 2 mg
Procedure: as §1, §2

[4] = Acute toxicity test of N-acetylneuraminic acid, mice (Example 6); parameters: species or system ICR mice; conditions: mouse, in vivo
Procedure: (§3) A test was conducted to examine the acute toxicity of N-acetylneuraminic acid, using mice and rats, by means of intravenous injection, subcutaneous injection, per os inhalation.
(§4) 13 to 15% (W/V) dissolved in distilled water
(§5) By Litchfield-Wilcoxon method.

[5] = Acute toxicity test of N-acetylneuraminic acid, rats (Example 6); assay type: in vivo, SD rats; conditions: rat, in vivo
Procedure: as §3
(§6) SD rats: 6 weeks old (7 weeks old in case of inhalation)
as §4, §5
(§7) Inhalation was conducted by 1hr exposure to mist.

rats = experiment: as above; assay type: in vivo, SD rats; conditions: inhalation, 1hr exposure to mist
Procedure: as §3, §6, §4, §5, §7

[6] = sample 5 (viscous sputum, 2 ml), before 18

**Q.** For `CC(=O)N[C@H]1[C@H]([C@H](O)[C@H](O)CO)OC(O)(C(=O)O)C[C@@H]1O` (stereo partly shown) [N-acetylneuraminic acid], which Movement (palatine mucosa of frog; 10^-4 g/ml, frog number 1) is on record?
**A.** Its Movement is 17.3 s/cm.

**Q.** And the Movement (palatine mucosa of frog; 10^-4 g/ml, frog number 2)?
**A.** Its Movement is 22.0 s/cm.

**Q.** What about the Movement (palatine mucosa of frog; 10^-4 g/ml, frog number 3) of the same molecule?
**A.** Its Movement is 20.7 s/cm.

**Q.** And the Movement (palatine mucosa of frog; 10^-4 g/ml, frog number 4)?
**A.** Its Movement is 22.0 s/cm.

**Q.** What about the Movement (palatine mucosa of frog; 10^-5 g/ml, frog number 1) of the same molecule?
**A.** Its Movement is 21.3 s/cm.

**Q.** And the Acceleration (palatine mucosa of frog; 10^-5 g/ml, frog number 1, control = 0)?
**A.** The Acceleration was 33.4%.

**Q.** And the Movement (palatine mucosa of frog; 10^-5 g/ml, frog number 2)?
**A.** The Movement was 27.3 s/cm.

**Q.** What about the Acceleration (palatine mucosa of frog; 10^-5 g/ml, frog number 2, control = 0) of the same molecule?
**A.** The Acceleration was 16.5%.

**Q.** What about the Movement (palatine mucosa of frog; 10^-5 g/ml, frog number 3) of the same molecule?
**A.** Its Movement is 28.7 s/cm.

**Q.** And the Acceleration (palatine mucosa of frog; 10^-5 g/ml, frog number 3, control = 0)?
**A.** The Acceleration was 28.2%.

**Q.** And the Movement (palatine mucosa of frog; 10^-5 g/ml, frog number 4)?
**A.** The Movement was 24.7 s/cm.

**Q.** And the activation at 10 µg/mL (palatine mucosa of frog; 10^-5 g/ml, frog number 4, control = 0, read-out: Acceleration)?
**A.** Its activation at 10 µg/mL is 31.4%.

**Q.** What about the “Effect on ciliary movement of palatine mucosa” value (palatine mucosa of frog; Tables 1 and 3) of the same molecule?
**A.** Its value is “acceleration of the ciliary movement of palatine mucosa in a certain dose-dependency”.

**Q.** And the “Ciliary movement promoting effect compared with acetylcholine” value (palatine mucosa of frog; acetylcholine control at 10^-5 and 10^-4)?
**A.** Its value is “substantially the same ciliary movement promoting effect as the acetylcholine”.

**Q.** What about the “Increase of rotation speed (revolutions per minute) over Medium 199 at plateau” value ([1]; 10^-3 to 10^-2 mg/ml, 5, 10 and 15 minutes after application) of the same molecule?
**A.** The value was “about 25%”.

**Q.** And the “Effect on rotary motion of the cilium cells” value ([1]; 10^-4 to 10^-1 mg/ml)?
**A.** The value was “gradually accelerated starting immediately after the application”.

**Q.** What about the “Change of MTR of sputum” value ([2]; 1 mg/ml, samples with reduced spinnability) of the same molecule?
**A.** Its value is “tendency to increased MTR”.

**Q.** What about the MTR after treatment ([2]; sample 1 (viscous sputum, 2 ml), before 19) of the same molecule?
**A.** The MTR after treatment was 38 mm/min.

**Q.** And the MTR after treatment ([2]; sample 2 (viscous sputum, 2 ml), before 8)?
**A.** Its MTR after treatment is 19 mm/min.

**Q.** What about the MTR after treatment ([2]; sample 3 (pus sputum, 2 ml), before 20) of the same molecule?
**A.** Its MTR after treatment is 27 mm/min.

**Q.** And the MTR after treatment ([2]; sample 4 (viscous sputum, 2 ml), before 25)?
**A.** Its MTR after treatment is 29 mm/min.

**Q.** And the MTR after treatment [2, 6]?
**A.** The MTR after treatment was 30 mm/min.

**Q.** And the MTR after treatment ([2]; sample 6 (viscous sputum, 2 ml), before 15)?
**A.** The MTR after treatment was 18 mm/min.

**Q.** What about the “Change of spinnability of sputum” value ([3]; 1 mg/ml) of the same molecule?
**A.** Its value is “five samples showed a reduction, while one sample showed a slight increase”.

**Q.** What about the “Change of yield value of sputum” value ([3]; 1 mg/ml) of the same molecule?
**A.** The value was “Increase in the yield value was observed in three samples, while three samples showed a reduction. The yield value was unchanged in the remaining one sample”.

**Q.** What about the “Change of sputum pH value” ([3]; 1 mg/ml, six samples) of the same molecule?
**A.** The value was “five out of six samples treated with 1 mg/ml of N-acetylneuraminic acid showed a reduction in pH value (pH 7.31 0.40), while the remaining one sample showed a slight increase in pH value”.

**Q.** And the “Yield value after treatment” value ([3]; sample 1 (viscous sputum, 2 ml), before 3.7)?
**A.** Its value is 11.5 mmH2 O.

**Q.** And the “pH of sputum after treatment” value ([3]; sample 1 (viscous sputum, 2 ml), before 7.72)?
**A.** Its value is 7.35.

**Q.** What about the Spinnability after treatment ([3]; sample 1 (viscous sputum, 2 ml), before 55) of the same molecule?
**A.** Its Spinnability after treatment is 19 mm.

**Q.** What about the “Yield value after treatment” value ([3]; sample 2 (viscous sputum, 2 ml), before 0.1) of the same molecule?
**A.** Its value is 0.1 mmH2 O.

**Q.** And the “pH of sputum after treatment” value ([3]; sample 2 (viscous sputum, 2 ml), before 7.52)?
**A.** The value was 7.62.

**Q.** What about the Spinnability after treatment ([3]; sample 2 (viscous sputum, 2 ml), before 10) of the same molecule?
**A.** Its Spinnability after treatment is 3 mm.

**Q.** And the “Yield value after treatment” value ([3]; sample 3 (pus sputum, 2 ml), before 2.7)?
**A.** Its value is 0.7 mmH2 O.

**Q.** And the Spinnability after treatment ([3]; sample 3 (pus sputum, 2 ml), before 5)?
**A.** The Spinnability after treatment was 2 mm.

**Q.** And the “pH of sputum after treatment” value ([3]; sample 3 (pus sputum, 2 ml), before 7.98)?
**A.** Its value is 7.20.

**Q.** What about the “Yield value after treatment” value ([3]; sample 4 (viscous sputum, 2 ml), before 1.9) of the same molecule?
**A.** Its value is 3.2 mmH2 O.

**Q.** What about the “pH of sputum after treatment” value ([3]; sample 4 (viscous sputum, 2 ml), before 6.98) of the same molecule?
**A.** Its value is 6.84.

**Q.** What about the Spinnability after treatment ([3]; sample 4 (viscous sputum, 2 ml), before 22) of the same molecule?
**A.** Its Spinnability after treatment is 12 mm.

**Q.** And the “Yield value after treatment” value ([3]; sample 5 (viscous sputum, 2 ml), before 2.2)?
**A.** Its value is 3.1 mmH2 O.

**Q.** What about the “pH of sputum after treatment” value ([3]; sample 5 (viscous sputum, 2 ml), before 7.24) of the same molecule?
**A.** The value was 6.94.

**Q.** What about the Spinnability after treatment [3, 6] of the same molecule?
**A.** Its Spinnability after treatment is 16 mm.

**Q.** And the “pH of sputum after treatment” value ([3]; sample 6 (viscous sputum, 2 ml), before 8.16)?
**A.** The value was 7.88.

**Q.** And the “Yield value after treatment” value ([3]; sample 6 (viscous sputum, 2 ml), before 14.3)?
**A.** Its value is 7.5 mmH2 O.

**Q.** What about the Spinnability after treatment ([3]; sample 6 (viscous sputum, 2 ml), before 22) of the same molecule?
**A.** The Spinnability after treatment was 26 mm.

**Q.** And the LD50 at 336 h ([4]; iv, mice F, 95% 2137-2925)?
**A.** The LD50 at 336 h was 2500 mg/kg.

**Q.** And the LD50 at 336 h ([4]; iv, mice M, 95% 1441-2008)?
**A.** The LD50 at 336 h was 1700 mg/kg.

**Q.** And the LD50 at 336 h ([4]; po, per os, mice F)?
**A.** Its LD50 at 336 h is > 5000 mg/kg.

**Q.** What about the LD50 at 336 h ([4]; po, per os, mice M) of the same molecule?
**A.** The LD50 at 336 h was > 5000 mg/kg.

**Q.** What about the LD50 at 336 h ([4]; sc, subcutaneous, mice F) of the same molecule?
**A.** The LD50 at 336 h was > 5000 mg/kg.

**Q.** And the LD50 at 336 h ([4]; sc, subcutaneous, mice M)?
**A.** Its LD50 at 336 h is > 5000 mg/kg.

**Q.** And the LD50 at 336 h ([5]; iv, rats F, 95% 1741-2030)?
**A.** The LD50 at 336 h was 1880 mg/kg.

**Q.** And the LD50 at 336 h ([5]; iv, rats M, 95% 1748-2001)?
**A.** The LD50 at 336 h was 1870 mg/kg.

**Q.** And the LD50 at 336 h ([5]; po, per os, rats F)?
**A.** The LD50 at 336 h was > 5000 mg/kg.

**Q.** And the LD50 at 336 h ([5]; po, per os, rats M)?
**A.** The LD50 at 336 h was > 5000 mg/kg.

**Q.** What about the LD50 at 336 h ([5]; sc, subcutaneous, rats F) of the same molecule?
**A.** The LD50 at 336 h was > 5000 mg/kg.

**Q.** And the LD50 at 336 h ([5]; sc, subcutaneous, rats M)?
**A.** Its LD50 at 336 h is > 5000 mg/kg.

**Q.** What about the LD50 (rats; rats F) of the same molecule?
**A.** The LD50 was > 4.33 g/m^3.

**Q.** What about the LD50 (rats; rats M) of the same molecule?
**A.** Its LD50 is > 4.33 g/m^3.
